Reference: ChEMBL document CHEMBL4507295 (2021)

Legend:
[1] = test system: Phosphatidylinositol 4,5-bisphosphate 3-kinase catalytic subunit alpha isoform (Homo sapiens), P42336 [I800L]; settings: Compound concentration 1000.0 nM
[2] = molecular target: T1, Alpha-2B adrenergic receptor (Homo sapiens) (UniProt P18089); settings: Compound concentration 10.0 uM
T1 sequence (whole entry): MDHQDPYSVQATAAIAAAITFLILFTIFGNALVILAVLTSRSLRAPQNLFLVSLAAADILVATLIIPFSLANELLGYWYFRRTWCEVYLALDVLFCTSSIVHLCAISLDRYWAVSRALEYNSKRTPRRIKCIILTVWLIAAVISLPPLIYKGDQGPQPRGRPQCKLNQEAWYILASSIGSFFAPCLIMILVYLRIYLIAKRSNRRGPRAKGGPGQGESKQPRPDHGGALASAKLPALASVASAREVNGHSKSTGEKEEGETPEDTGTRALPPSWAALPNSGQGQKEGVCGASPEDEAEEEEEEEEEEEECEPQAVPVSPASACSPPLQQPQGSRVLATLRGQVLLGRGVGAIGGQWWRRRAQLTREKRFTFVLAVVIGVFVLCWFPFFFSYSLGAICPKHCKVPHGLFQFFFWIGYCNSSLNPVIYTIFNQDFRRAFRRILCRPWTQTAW

[3] = test system: Tyrosine-protein kinase ABL1 (Homo sapiens), P00519 [Q252H]; settings: Compound concentration 1000.0 nM
[4] = molecular target: Calcium/calmodulin-dependent protein kinase kinase 1 (Homo sapiens) (UniProt Q8N5S9); settings: Compound concentration 1000.0 nM
[5] = molecular target: Serine/threonine-protein kinase/endoribonuclease IRE1 (Homo sapiens) (UniProt O75460); settings: Compound concentration 1000.0 nM
[6] = molecular target: Myosin-IIIb (Homo sapiens) (UniProt Q8WXR4); settings: Compound concentration 1000.0 nM
[7] = molecular target: Calcium/calmodulin-dependent protein kinase type 1 (Homo sapiens) (UniProt Q14012); settings: Compound concentration 1000.0 nM
[8] = molecular target: Testis-specific serine/threonine-protein kinase 3 (Homo sapiens) (UniProt Q96PN8); settings: Compound concentration 1000.0 nM
[9] = molecular target: Mitogen-activated protein kinase kinase kinase 4 (Homo sapiens) (UniProt Q9Y6R4); settings: Compound concentration 1000.0 nM
[10] = molecular target: Tyrosine-protein kinase Lyn (Homo sapiens) (UniProt P07948); settings: Compound concentration 1000.0 nM
[11] = molecular target: Serine/threonine-protein kinase Chk2 (Homo sapiens) (UniProt O96017); settings: Compound concentration 1000.0 nM
[12] = molecular target: Activin receptor type-2B (Homo sapiens) (UniProt Q13705); settings: Compound concentration 1000.0 nM
[13] = molecular target: Serine/threonine-protein kinase NIM1 (Homo sapiens) (UniProt Q8IY84); settings: Compound concentration 1000.0 nM
[14] = molecular target: Homeodomain-interacting protein kinase 1 (Homo sapiens) (UniProt Q86Z02); settings: Compound concentration 1000.0 nM
[15] = molecular target: Serine/threonine-protein kinase TAO2 (Homo sapiens) (UniProt Q9UL54); settings: Compound concentration 1000.0 nM
[16] = molecular target: Homeodomain-interacting protein kinase 2 (Homo sapiens) (UniProt Q9H2X6); settings: Compound concentration 1000.0 nM
[17] = molecular target: Phosphatidylinositol 3-kinase C2 domain-containing subunit gamma (Homo sapiens) (UniProt O75747); settings: Compound concentration 1000.0 nM
[18] = molecular target: Mitogen-activated protein kinase kinase kinase kinase 1 (Homo sapiens) (UniProt Q92918); settings: Compound concentration 1000.0 nM
[19] = test system: Tyrosine-protein kinase ABL1 (Homo sapiens), P00519 [H396P]; settings: Compound concentration 1000.0 nM
[20] = molecular target: Ephrin type-A receptor 3 (Homo sapiens) (UniProt P29320); settings: Compound concentration 1000.0 nM
[21] = molecular target: Serine/threonine-protein kinase PLK1 (Homo sapiens) (UniProt P53350); settings: Compound concentration 1000.0 nM
[22] = molecular target: Serine/threonine-protein kinase 24 (Homo sapiens) (UniProt Q9Y6E0); settings: Compound concentration 1000.0 nM
[23] = molecular target: Calcium-dependent protein kinase 1 (Plasmodium falciparum) (UniProt P62344); settings: Compound concentration 1000.0 nM
[24] = molecular target: Myosin-IIIa (Homo sapiens) (UniProt Q8NEV4); settings: Compound concentration 1000.0 nM
[25] = molecular target: Ephrin type-A receptor 5 (Homo sapiens) (UniProt P54756); settings: Compound concentration 1000.0 nM
[26] = molecular target: T2, Muscarinic acetylcholine receptor M4 (Homo sapiens) (UniProt P08173); settings: Compound concentration 10.0 uM
T2 sequence (whole entry): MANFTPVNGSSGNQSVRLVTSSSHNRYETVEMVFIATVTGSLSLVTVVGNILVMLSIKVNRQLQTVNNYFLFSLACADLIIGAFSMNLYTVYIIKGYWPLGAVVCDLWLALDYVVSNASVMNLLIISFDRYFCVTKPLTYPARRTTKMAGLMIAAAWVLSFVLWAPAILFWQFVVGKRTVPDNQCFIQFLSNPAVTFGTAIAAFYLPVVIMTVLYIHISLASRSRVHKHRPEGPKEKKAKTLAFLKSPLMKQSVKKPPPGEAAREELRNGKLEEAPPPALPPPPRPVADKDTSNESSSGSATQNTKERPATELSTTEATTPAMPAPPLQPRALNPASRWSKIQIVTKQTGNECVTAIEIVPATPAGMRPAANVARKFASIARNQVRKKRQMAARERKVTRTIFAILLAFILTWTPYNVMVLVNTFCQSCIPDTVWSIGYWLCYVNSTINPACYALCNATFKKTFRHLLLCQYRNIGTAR

[27] = test system: Phosphatidylinositol 4,5-bisphosphate 3-kinase catalytic subunit alpha isoform (Homo sapiens), P42336 [E545A]; settings: Compound concentration 1000.0 nM
[28] = molecular target: Phosphatidylinositol 4-kinase beta (Homo sapiens) (UniProt Q9UBF8); settings: Compound concentration 1000.0 nM
[29] = test system: Phosphatidylinositol 4,5-bisphosphate 3-kinase catalytic subunit alpha isoform (Homo sapiens), P42336 [E545K]; settings: Compound concentration 1000.0 nM
[30] = molecular target: Mitogen-activated protein kinase kinase kinase 5 (Homo sapiens) (UniProt Q99683); settings: Compound concentration 1000.0 nM
[31] = test system: Tyrosine-protein kinase ABL1 (Homo sapiens), P00519 [F317L]; settings: Compound concentration 1000.0 nM
[32] = molecular target: Myotonin-protein kinase (Homo sapiens) (UniProt Q09013); settings: Compound concentration 1000.0 nM

Phosphatidylinositol 4,5-bisphosphate 3-kinase catalytic subunit alpha isoform (Homo sapiens), P42336 [E545K], sequence (P42336 whole entry E545K, canonical isoform): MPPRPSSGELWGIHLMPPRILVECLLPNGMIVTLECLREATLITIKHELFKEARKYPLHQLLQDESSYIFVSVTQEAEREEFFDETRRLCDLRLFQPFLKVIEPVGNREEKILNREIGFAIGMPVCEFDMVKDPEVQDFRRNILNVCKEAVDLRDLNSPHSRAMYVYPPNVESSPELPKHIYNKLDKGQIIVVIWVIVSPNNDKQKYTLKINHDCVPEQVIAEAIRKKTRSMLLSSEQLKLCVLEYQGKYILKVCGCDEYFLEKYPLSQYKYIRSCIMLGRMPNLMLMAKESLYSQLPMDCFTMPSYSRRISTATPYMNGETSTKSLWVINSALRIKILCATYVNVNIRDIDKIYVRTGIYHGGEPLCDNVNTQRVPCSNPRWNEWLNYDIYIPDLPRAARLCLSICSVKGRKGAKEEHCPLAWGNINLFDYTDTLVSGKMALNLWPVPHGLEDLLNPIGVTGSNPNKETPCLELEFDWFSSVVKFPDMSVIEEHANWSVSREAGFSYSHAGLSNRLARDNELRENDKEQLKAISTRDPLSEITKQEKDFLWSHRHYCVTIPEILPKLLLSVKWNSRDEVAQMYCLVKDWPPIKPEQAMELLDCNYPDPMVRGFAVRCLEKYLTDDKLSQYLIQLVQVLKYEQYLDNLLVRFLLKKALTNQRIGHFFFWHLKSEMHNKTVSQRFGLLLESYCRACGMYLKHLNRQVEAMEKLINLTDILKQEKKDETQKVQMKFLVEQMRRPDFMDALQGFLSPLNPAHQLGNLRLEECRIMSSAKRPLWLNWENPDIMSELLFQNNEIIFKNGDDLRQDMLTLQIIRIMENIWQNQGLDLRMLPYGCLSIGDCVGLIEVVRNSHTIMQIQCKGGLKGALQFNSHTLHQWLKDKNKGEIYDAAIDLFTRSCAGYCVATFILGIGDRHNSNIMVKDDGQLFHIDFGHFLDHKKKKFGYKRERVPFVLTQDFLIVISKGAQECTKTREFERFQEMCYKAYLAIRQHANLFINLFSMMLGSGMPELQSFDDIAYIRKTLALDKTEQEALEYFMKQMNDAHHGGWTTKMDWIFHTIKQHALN
Serine/threonine-protein kinase PLK1 (Homo sapiens), sequence (P53350 whole entry): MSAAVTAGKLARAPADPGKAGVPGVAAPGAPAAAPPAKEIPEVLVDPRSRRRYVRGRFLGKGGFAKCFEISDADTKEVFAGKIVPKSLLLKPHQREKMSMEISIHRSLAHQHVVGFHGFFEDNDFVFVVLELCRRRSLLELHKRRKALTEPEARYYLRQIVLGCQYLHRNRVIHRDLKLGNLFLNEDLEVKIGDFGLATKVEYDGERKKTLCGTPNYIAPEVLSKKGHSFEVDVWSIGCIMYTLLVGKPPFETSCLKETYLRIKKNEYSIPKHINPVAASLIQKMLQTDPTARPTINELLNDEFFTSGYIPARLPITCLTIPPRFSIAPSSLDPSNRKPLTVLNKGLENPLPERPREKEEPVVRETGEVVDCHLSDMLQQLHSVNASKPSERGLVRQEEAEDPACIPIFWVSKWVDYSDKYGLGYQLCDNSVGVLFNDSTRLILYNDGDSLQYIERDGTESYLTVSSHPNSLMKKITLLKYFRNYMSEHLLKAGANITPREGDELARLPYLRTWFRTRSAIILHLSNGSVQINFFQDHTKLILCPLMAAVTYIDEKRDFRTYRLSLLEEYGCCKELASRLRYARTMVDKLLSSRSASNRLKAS
Phosphatidylinositol 4-kinase beta (Homo sapiens), sequence (Q9UBF8 2-816 limits assumed): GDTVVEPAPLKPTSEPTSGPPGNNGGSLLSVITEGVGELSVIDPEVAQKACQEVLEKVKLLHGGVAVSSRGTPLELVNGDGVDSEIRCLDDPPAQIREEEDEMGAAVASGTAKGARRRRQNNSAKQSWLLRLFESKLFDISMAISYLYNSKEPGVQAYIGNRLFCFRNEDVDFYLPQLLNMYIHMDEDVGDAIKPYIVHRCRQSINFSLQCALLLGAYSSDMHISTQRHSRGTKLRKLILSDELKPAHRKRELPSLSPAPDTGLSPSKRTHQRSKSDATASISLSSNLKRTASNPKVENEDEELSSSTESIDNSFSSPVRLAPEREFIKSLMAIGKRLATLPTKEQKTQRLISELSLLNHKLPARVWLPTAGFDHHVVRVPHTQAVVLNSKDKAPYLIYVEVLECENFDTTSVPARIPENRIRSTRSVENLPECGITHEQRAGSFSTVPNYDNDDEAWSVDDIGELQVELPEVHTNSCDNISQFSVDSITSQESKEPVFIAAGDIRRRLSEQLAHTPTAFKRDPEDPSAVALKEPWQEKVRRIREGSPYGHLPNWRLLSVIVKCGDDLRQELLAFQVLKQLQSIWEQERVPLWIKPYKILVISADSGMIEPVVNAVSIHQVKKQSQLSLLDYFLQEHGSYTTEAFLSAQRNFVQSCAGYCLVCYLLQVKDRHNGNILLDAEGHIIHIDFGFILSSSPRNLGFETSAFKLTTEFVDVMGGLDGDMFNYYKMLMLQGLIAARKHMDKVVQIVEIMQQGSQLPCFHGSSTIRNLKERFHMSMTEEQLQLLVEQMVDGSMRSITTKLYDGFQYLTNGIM
Mitogen-activated protein kinase kinase kinase 4 (Homo sapiens), sequence (Q9Y6R4 whole entry): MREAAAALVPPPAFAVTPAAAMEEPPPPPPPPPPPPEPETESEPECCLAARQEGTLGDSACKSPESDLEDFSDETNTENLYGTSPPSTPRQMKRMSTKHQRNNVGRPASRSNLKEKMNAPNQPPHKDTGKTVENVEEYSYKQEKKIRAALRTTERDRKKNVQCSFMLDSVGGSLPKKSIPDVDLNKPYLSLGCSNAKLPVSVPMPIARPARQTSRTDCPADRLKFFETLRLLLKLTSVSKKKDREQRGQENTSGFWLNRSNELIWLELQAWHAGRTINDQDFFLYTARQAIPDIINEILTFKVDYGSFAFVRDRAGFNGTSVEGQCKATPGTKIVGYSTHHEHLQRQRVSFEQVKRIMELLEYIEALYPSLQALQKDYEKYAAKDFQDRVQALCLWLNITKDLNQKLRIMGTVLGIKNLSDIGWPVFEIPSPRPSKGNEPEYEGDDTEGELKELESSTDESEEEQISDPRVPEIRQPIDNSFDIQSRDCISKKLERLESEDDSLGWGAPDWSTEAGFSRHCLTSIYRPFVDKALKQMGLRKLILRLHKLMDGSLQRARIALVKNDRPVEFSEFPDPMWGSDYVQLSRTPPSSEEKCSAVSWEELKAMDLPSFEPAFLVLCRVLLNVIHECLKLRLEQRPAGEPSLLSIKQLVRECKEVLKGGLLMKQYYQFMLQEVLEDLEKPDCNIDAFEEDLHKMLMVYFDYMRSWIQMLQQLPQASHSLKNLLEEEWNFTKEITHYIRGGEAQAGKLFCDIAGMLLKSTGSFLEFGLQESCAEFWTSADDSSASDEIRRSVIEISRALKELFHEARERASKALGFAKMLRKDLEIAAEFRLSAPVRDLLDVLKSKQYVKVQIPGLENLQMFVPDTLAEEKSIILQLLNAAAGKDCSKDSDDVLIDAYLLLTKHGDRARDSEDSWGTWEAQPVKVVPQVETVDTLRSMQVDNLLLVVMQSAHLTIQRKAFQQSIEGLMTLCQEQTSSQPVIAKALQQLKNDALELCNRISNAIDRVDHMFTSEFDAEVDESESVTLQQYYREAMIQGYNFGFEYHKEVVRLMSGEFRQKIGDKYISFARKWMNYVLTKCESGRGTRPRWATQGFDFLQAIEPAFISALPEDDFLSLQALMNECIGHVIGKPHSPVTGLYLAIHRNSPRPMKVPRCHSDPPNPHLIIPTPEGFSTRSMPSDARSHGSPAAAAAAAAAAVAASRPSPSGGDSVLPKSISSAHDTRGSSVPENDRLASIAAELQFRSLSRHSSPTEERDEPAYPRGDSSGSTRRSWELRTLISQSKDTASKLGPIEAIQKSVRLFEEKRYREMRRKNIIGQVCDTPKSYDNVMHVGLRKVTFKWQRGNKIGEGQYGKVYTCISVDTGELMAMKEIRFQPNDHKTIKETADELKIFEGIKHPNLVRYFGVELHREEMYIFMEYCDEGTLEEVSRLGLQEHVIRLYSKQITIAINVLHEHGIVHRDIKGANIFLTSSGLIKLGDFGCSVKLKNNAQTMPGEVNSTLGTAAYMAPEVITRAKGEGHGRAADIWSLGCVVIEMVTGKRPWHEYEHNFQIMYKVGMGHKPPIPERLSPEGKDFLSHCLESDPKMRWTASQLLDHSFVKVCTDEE
Serine/threonine-protein kinase 24 (Homo sapiens), sequence (Q9Y6E0 whole entry, looked up): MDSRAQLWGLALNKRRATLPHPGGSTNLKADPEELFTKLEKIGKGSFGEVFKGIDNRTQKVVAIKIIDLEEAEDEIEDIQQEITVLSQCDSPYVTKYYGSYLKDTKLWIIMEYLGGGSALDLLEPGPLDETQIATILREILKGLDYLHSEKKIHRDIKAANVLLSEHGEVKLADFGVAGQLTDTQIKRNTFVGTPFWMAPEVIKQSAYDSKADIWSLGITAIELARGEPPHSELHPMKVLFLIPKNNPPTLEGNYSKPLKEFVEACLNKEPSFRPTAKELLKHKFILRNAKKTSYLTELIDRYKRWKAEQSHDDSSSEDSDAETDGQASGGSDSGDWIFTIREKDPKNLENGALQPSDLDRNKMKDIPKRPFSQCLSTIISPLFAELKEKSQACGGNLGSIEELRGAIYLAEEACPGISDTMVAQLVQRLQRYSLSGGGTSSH
Activin receptor type-2B (Homo sapiens), sequence (Q13705 whole entry): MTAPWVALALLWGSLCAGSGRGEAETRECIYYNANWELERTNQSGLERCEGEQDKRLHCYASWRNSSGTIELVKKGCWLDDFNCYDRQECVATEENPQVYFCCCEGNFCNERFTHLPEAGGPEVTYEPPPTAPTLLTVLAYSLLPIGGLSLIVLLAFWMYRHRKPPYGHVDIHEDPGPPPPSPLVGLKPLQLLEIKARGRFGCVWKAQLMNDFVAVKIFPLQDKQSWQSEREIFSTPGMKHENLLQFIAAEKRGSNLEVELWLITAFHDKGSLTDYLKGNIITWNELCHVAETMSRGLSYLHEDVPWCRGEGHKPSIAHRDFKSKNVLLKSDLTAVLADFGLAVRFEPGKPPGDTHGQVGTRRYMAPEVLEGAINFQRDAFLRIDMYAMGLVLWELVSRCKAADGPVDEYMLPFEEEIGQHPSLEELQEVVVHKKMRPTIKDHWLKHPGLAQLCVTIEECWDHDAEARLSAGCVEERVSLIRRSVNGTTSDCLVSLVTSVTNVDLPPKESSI

N#CC1(c2ccccn2)CCN(Cc2cc(C(=O)O)c(=O)n3ccccc23)CC1 [MSD-M1PAM]
inactive: residual activity [1] 90% | inhibition [2] -6.86% | residual activity [3] 89% | residual activity [4] 100% | residual activity [5] 81% | residual activity [6] 100% | residual activity [7] 76% | residual activity [8] 100% | residual activity [9] 100% | residual activity [10] 100% | residual activity [11] 87% | residual activity [12] 97% | residual activity [13] 69% | residual activity [14] 100% | residual activity [15] 97% | residual activity [16] 66% | residual activity [17] 97% | residual activity [18] 100% | residual activity [19] 91% | residual activity [20] 75% | residual activity [21] 70% | residual activity [22] 100% | residual activity [23] 88% | residual activity [24] 100% | residual activity [25] 89% | inhibition [26] -2.36% | residual activity [27] 100% | residual activity [28] 74% | residual activity [29] 100% | residual activity [30] 75% | residual activity [31] 57% | residual activity [32] 97%

N#CC1(c2ccccn2)CCN(Cc2cc(C(=O)N3CCCC3)c(=O)n3ccccc23)CC1
inactive: residual activity [1] 72% | inhibition [2] -2.99% | residual activity [3] 97% | residual activity [4] 100% | residual activity [5] 100% | residual activity [6] 100% | residual activity [7] 100% | residual activity [8] 100% | residual activity [9] 90% | residual activity [10] 99% | residual activity [11] 92% | residual activity [12] 75% | residual activity [13] 95% | residual activity [14] 77% | residual activity [15] 100% | residual activity [16] 100% | residual activity [17] 73% | residual activity [18] 100% | residual activity [19] 100% | residual activity [20] 100% | residual activity [21] 100% | residual activity [22] 87% | residual activity [23] 84% | residual activity [24] 80% | residual activity [25] 100% | inhibition [26] -8.87% | residual activity [27] 78% | residual activity [28] 100% | residual activity [29] 76% | residual activity [30] 80% | residual activity [31] 92% | residual activity [32] 90%
